Source: ChEMBL document CHEMBL1201862, “PubChem BioAssay data set” (2004)
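48-hour exposure; five concentrations; linearly interpolated endpoints. The concentration for 50% growth inhibition is given as GI50.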 Activity calls are given as the source filed them. Rule as the data show it: active = GI50 up to about 1.1 µM and inactive = higher.

Assays:
Assay in all cases: inhibition of tumour cell growth, NCI panel, 48 h
MDA-N = test system: MDA-N
NCI-H23 = test system: NCI-H23
CCRF-CEM = test system: CCRF-CEM
SNB-19 = test system: SNB-19
KM12 = test system: KM12
RPMI-8226 = test system: RPMI-8226
OVCAR-5 = test system: OVCAR-5
IGROV-1 = test system: IGROV-1
MCF7 = test system: MCF7
786-0 = test system: 786-0
HOP-92 = test system: HOP-92
HCT-116 = test system: HCT-116
Hs-578T = test system: Hs-578T
SF-268 = test system: SF-268
OVCAR-8 = test system: OVCAR-8
OVCAR-3 = test system: OVCAR-3
NCI-H226 = test system: NCI-H226
A498 = test system: A498

Measured: GI50

CCCCCCCCCCCC(=O)Oc1c(Cl)cc(Cl)c(OC(=O)C(=O)Oc2c(Cl)cc(Cl)c(OC(=O)CCCCCCCCCCC)c2Cl)c1Cl
inactive: MDA-N > 100 µM | NCI-H23 > 100 µM | CCRF-CEM > 100 µM | SNB-19 > 100 µM | KM12 > 100 µM | RPMI-8226 > 100 µM | OVCAR-5 > 100 µM | IGROV-1 > 100 µM | MCF7 > 100 µM | 786-0 > 100 µM | HOP-92 > 100 µM | HCT-116 > 100 µM | Hs-578T > 100 µM | SF-268 > 100 µM | OVCAR-8 > 100 µM

CCOC(=O)/C=C(/N=P(c1ccccc1)(c1ccccc1)c1ccccc1)C(F)(F)F
inactive: OVCAR-3 > 10 µM | MDA-N > 10 µM | NCI-H23 > 10 µM | CCRF-CEM > 10 µM | SNB-19 > 10 µM | KM12 > 10 µM | RPMI-8226 > 10 µM | OVCAR-5 > 10 µM | NCI-H226 > 10 µM | IGROV-1 > 10 µM | A498 > 10 µM | 786-0 > 10 µM | HOP-92 1.44 µM | HCT-116 > 10 µM | Hs-578T > 10 µM | SF-268 > 10 µM | OVCAR-8 > 10 µM

CCCCOCOc1ccccc1P1(=O)COc2ccccc2OC1
inactive: OVCAR-3 68.7 µM | MDA-N > 100 µM | NCI-H23 > 100 µM | CCRF-CEM > 100 µM | SNB-19 > 100 µM | KM12 > 100 µM | RPMI-8226 87.9 µM | OVCAR-5 > 100 µM | IGROV-1 > 100 µM | MCF7 75 µM | 786-0 > 100 µM | HOP-92 74.1 µM | HCT-116 62.5 µM | Hs-578T 54 µM | SF-268 > 100 µM

CCC(=O)n1c(=O)n(-c2ccc([N+](=O)[O-])cc2)c(=O)n1C(=O)CC
inactive: OVCAR-3 > 100 µM | MDA-N > 100 µM | NCI-H23 > 100 µM | CCRF-CEM > 100 µM | SNB-19 > 100 µM | KM12 > 100 µM | RPMI-8226 > 100 µM | OVCAR-5 > 100 µM | NCI-H226 > 100 µM | IGROV-1 > 100 µM | MCF7 > 100 µM | 786-0 > 100 µM | HCT-116 > 100 µM | Hs-578T > 100 µM | SF-268 > 100 µM | OVCAR-8 > 100 µM

Cc1ccc2c(c1)nc1n2C(c2c(F)cccc2F)SC1 (centres undefined)
inactive: OVCAR-3 55.8 µM | MDA-N 49.8 µM | NCI-H23 41.5 µM | CCRF-CEM 21 µM | SNB-19 64.1 µM | KM12 34.4 µM | RPMI-8226 34.4 µM | OVCAR-5 57.4 µM | NCI-H226 29 µM | IGROV-1 50.6 µM | MCF7 41.7 µM | 786-0 32 µM | HCT-116 28.4 µM | Hs-578T 15.7 µM | SF-268 44.5 µM | OVCAR-8 39.5 µM
